Assay results taken from patent publication US20250213701A1, “MEDICAMENT FOR TREATING HUMAN TUMOR BASED ON ERF3A-TARGETING PROTEOLYSIS MECHANISM” (SUZHOU DEGEN BIO-MEDICAL CO., LTD., priority 2022, published 2025).

Experiments:
Format in all cases: cell-based, human
VCaP cells = assay: Anti-proliferative toxicity against prostate cancer cell line Vcap (CCK8); conditions: 3 days, CCK8
Method: (§1) Example 82: Detection of Anti-Proliferative Toxicity Against Prostate Cancer Cell Lines Vcap, 22Rv1, and PC-3
(§2) Vcap cells (purchased from the Cell Bank of the Chinese Academy of Sciences, Cat. No. SCSP-5034) were subcultured in a culture medium (DMEM medium+1% penicillin-streptomycin dual-antibiotic solution+10% fetal bovine serum) in an incubator at 5% carbon dioxide and 37° C. 22Rv1 cells (purchased from the Cell Bank of the Chinese Academy of Sciences, Cat. No. TCHu100) were subcultured in a culture medium (RPMI-1640 medium+1% penicillin-streptomycin dual-antibiotic solution+10% fetal bovine serum) in an incubator at 5% carbon dioxide and 37° C.
VCap cells were seeded at 20000 cells/well (90 μL) on a 96-well plate and cultured for 72 h. The original medium was removed, and a new medium of 90 μL was added.
(§3) 10 mM compound stock solutions were prepared in DMSO.
For VCap cells, the compound stock solution was diluted with DMSO to give DMSO solutions 1-10 at concentrations of 0 μM, 80 μM, 16 μM, 3.2 μM, 1.5 μM, 0.5 μM, 0.15 μM, 0.05 μM, 0.025 μM, and 0.0005 μM.
For Vcap cells, 2 μL of each of the above solutions 1-10 was added to 98 μL of Vcap medium to give mixed solutions 20-29 of the compound and the medium.
For Vcap cells, 10 μL of each of the above solutions 20-29 was added to the above cell seed solution to give a total volume of 100 μL (90 μL+10 μL), where the concentrations of the compound in wells were 0 μM, 0.16 μM, 0.032 μM, 0.006 μM, 0.003 μM, 0.001 μM, 0.0003 μM, 0.0001 μM, 0.00005 μM, and 0.00001 μM. All concentrations were in triplicate.
(§4) After the above-treated cells were cultured for 3 days, 10 μL of the CCK8 solution (DOJINDO, Cat. No. PF725) was added to each well. The plate was incubated in an incubator at 37° C. for 1-4 h and then detected on a microplate reader for the reading at 450 nm.

22Rv1 cells = assay: Anti-proliferative toxicity against prostate cancer cell line 22Rv1 (CCK8); conditions: 3 days, CCK8
Method: as §1, §2
22Rv1 cells were seeded at 5000 cells/well (90 μL) on a 96-well plate and cultured for 48 h.
as §3
(§5) For 22Rv1 cells and PC-3 cells, the compound stock solution was diluted with DMSO to give DMSO solutions 11-19 at concentrations of 0 μM, 500 μM, 100 μM, 20 μM, 4 μM, 0.8 μM, 0.16 μM, 0.032 μM, 0.0064 μM.
For 22Rv1 cells, 2 μL of each of the above solutions 11-19 was added to 98 μL of 22Rv1 medium to give mixed solutions 30-38 of the compound and the medium.
(§6) For 22Rv1 and PC-3 cells, 10 μL of each of the above solutions 30-38 or 39-47 was added to the above cell seed solution to give a total volume of 100 μL (90 μL+10 μL), where the concentrations of the compound in wells were 0 μM, 1.0 μM, 0.2 μM, 0.04 μM, 0.008 μM, 0.0016 μM, 0.00032 μM, 0.00006 μM, and 0.00001 μM. All concentrations were in triplicate.
as §4

PC-3 cells = assay: Anti-proliferative toxicity against prostate cancer cell line PC-3 (CCK8); conditions: 3 days
Method: as §1
PC-3 cells (purchased from the Cell Bank of the Chinese Academy of Sciences, Cat. No. SCSP-532) were subcultured in a culture medium (F12K medium+1% penicillin-streptomycin dual-antibiotic solution+10% fetal bovine serum) in an incubator at 5% carbon dioxide and 37° C.
PC-3 cells were seeded at 4000 cells/well (90 μL) on a 96-well plate and cultured for 24 h.
as §3, §5
For PC-3 cells, 2 μL of each of the above solutions 11-19 was added to 98 μL of PC-3 medium to give mixed solutions 39-47 of the compound and the medium.
as §6, §4

| Compound | IC50 (VCaP cells; Homo sapiens, 72 h) | IC50 (22Rv1 cells; Homo sapiens, 72 h) | IC50 (PC-3 cells; Homo sapiens, 72 h) | IC50 (VCaP cells) | IC50 (22Rv1 cells) | IC50 (PC-3 cells) |
| --- | --- | --- | --- | --- | --- | --- |
| C[C@]12C=CC(=O)N[C@@H]1CC[C@@H]1[C@@H]2CC[C@]2(C)[C@@H](C(=O)Nc3cccc(N[C@H]4C[C@H](Nc5cccc6c5C(=O)N(C5CCC(=O)NC5=O)C6=O)CC(F)(F)C4)c3)CC[C@@H]12 (stereo partly drawn) [C74, N-(3-(N—(N-(4-(2-(3-(2,6-dioxopiperidine))-isoindole-1,3-dione))-5,5-difluoro-1S,3S-cyclohexanediamine))phenyl)-3-oxo-4-aza-5α-androst-1-ene-17β-carboxamide] | 0.0001 to 0.01 µM | 0.0001 to 0.01 µM | 0.01 to 1 µM | – | – | – |
| C[C@]12C=CC(=O)N[C@@H]1CC[C@@H]1[C@@H]2CC[C@]2(C)[C@@H](C(=O)Nc3cccc(N4CCC(CNc5cccc6c5C(=O)N(C5CCC(=O)NC5=O)C6=O)CC4)c3)CC[C@@H]12 (stereo partly drawn) [C48, N-(3-(4-(((4-(2-(3-(2,6-dioxopiperidine))-isoindole-1,3-dione))amino)methyl)piperidine)phenyl)-3-oxo-4-aza-5α-androst-1-ene-17β-carboxamide] | > 1 µM | > 1 µM | > 1 µM | – | – | – |
| C[C@]12C=CC(=O)N[C@@H]1CC[C@@H]1[C@@H]2CC[C@]2(C)[C@@H](C(=O)NCCCCCCNc3cccc4c3C(=O)N(C3CCC(=O)NC3=O)C4=O)CC[C@@H]12 (stereo partly drawn) [C9, N-(6-((4-(2-(3-(2,6-dioxopiperidine))-isoindole-1,3-dione))amino)hexyl)-3-oxo-4-aza-5α-androst-1-ene-17β-carboxamide] | > 1 µM | > 1 µM | > 1 µM | – | – | – |
| C[C@]12C=CC(=O)N[C@@H]1CC[C@@H]1[C@@H]2CC[C@]2(C)[C@@H](C(=O)Nc3cccc(N[C@@H]4CCC[C@@H](Nc5cccc6c5CN([C@H]5CCC(=O)NC5=O)C6=O)C4)c3)CC[C@@H]12 [C65, N-(3-(N—(N-(4-(2-(3S-(2,6-dioxopiperidine))-1-oxo-2,3-dihydro-1H-isoindol))-1R,3R-cyclohexanediamine))phenyl)-3-oxo-4-aza-5α-androst-1-ene-17β-carboxamide] | 0.01 to 1 µM | 0.01 to 1 µM | > 1 µM | – | – | – |
| C[C@]12C=CC(=O)N[C@@H]1CC[C@@H]1[C@@H]2CC[C@]2(C)[C@@H](C(=O)NCCCCCNc3ccc4c(c3)C(=O)N(C3CCC(=O)NC3=O)C4=O)CC[C@@H]12 (stereo partly drawn) [C8, N-(5-((5-(2-(3-(2,6-dioxopiperidine))-isoindole-1,3-dione))amino)pentyl)-3-oxo-4-aza-5α-androst-1-ene-17β-carboxamide] | > 1 µM | > 1 µM | > 1 µM | – | – | – |
| C[C@]12C=CC(=O)N[C@@H]1CC[C@@H]1[C@@H]2CC[C@]2(C)[C@@H](C(=O)Nc3cccc(N[C@@H]4CCC[C@@H](Nc5cccc6c5CN([C@@H]5CCC(=O)NC5=O)C6=O)C4)c3)CC[C@@H]12 [C66, N-(3-(N—(N-(4-(2-(3R-(2,6-dioxopiperidine))-1-oxo-2,3-dihydro-1H-isoindol))-1R,3R-cyclohexanediamine))phenyl)-3-oxo-4-aza-5α-androst-1-ene-17β-carboxamide] | > 1 µM | > 1 µM | > 1 µM | – | – | – |
| C[C@]12C=CC(=O)N[C@@H]1CC[C@@H]1[C@@H]2CC[C@]2(C)[C@@H](C(=O)Nc3ccc(OCCCNc4ccc5c(c4)C(=O)N(C4CCC(=O)NC4=O)C5=O)cc3)CC[C@@H]12 (stereo partly drawn) [C18, N-(4-((3-((5-(2-(3-(2,6-dioxopiperidine))-isoindole-1,3-dione))amino)propyl)oxy)phenyl)-3-oxo-4-aza-5α-androst-1-ene-17β-carboxamide] | > 1 µM | > 1 µM | > 1 µM | – | – | – |
| C[C@]12C=CC(=O)N[C@@H]1CC[C@@H]1[C@@H]2CC[C@]2(C)[C@@H](C(=O)Nc3cccc(NC4CCCC(Nc5cccc6c5C(=O)N(C5CCC(=O)NC5=O)C6=O)C4)c3)CC[C@@H]12 (stereo partly drawn) [C58, N-(3-(N—(N-(4-(2-(3-(2,6-dioxopiperidine))-isoindole-1,3-dione))cyclohexanediamine))phenyl)-3-oxo-4-aza-5α-androst-1-ene-17β-carboxamide] | 0.0001 to 0.01 µM | 0.0001 to 0.01 µM | 0.01 to 1 µM | – | – | – |
| N-(3-(N—(N-(4-(2-(3-(2,6-dioxopiperidine))-isoindole-1,3-dione))-6S-methyl-1S,3R-cyclohexanediamine))phenyl)-3-oxo-4-aza-5α-androst-1-ene-17β-carboxamide and N-(3-(N—(N-(4-(2-(3-(2,6-dioxopiperidine))-isoindole-1,3-dione))-4R-methyl-1R,3S-cyclohexanediamine))phenyl)-3-oxo-4-aza-5α-androst-1-ene-17β-carboxamide [C70] | – | – | – | 0.0001 to 0.01 µM | 0.0001 to 0.01 µM | 0.01 to 1 µM |
| [2H][C@@]1(Nc2cccc(NC(=O)[C@H]3CC[C@H]4[C@@H]5CC[C@H]6NC(=O)C=C[C@]6(C)[C@H]5CC[C@]34C)c2)CCC[C@@]([2H])(Nc2cccc3c2C(=O)N(C2CCC(=O)NC2=O)C3=O)C1 (stereo partly drawn) [C68, N-(3-(N—(N-(4-(2-(3-(2,6-dioxopiperidine))-isoindole-1,3-dione))-1,3-dideutero-1R,3R-cyclohexanediamine))phenyl)-3-oxo-4-aza-5α-androst-1-ene-17β-carboxamide] | ≤ 0.0001 µM | 0.0001 to 0.01 µM | 0.0001 to 0.01 µM | – | – | – |
| CC(C)(C)C(=O)OCN1C(=O)CCC(N2C(=O)c3cccc(NCCCOc4cccc(NC(=O)[C@H]5CC[C@H]6[C@@H]7CC[C@H]8NC(=O)C=C[C@]8(C)[C@H]7CC[C@]56C)c4)c3C2=O)C1=O (stereo partly drawn) [C49, N-(3-((3-((4-(2-(3-(1-pivaloyloxymethyl-2,6-dioxopiperidine))-isoindole-1,3-dione))amino)propyl)oxy)phenyl)-3-oxo-4-aza-5α-androst-1-ene-17β-carboxamide] | 0.0001 to 0.01 µM | 0.0001 to 0.01 µM | > 1 µM | – | – | – |
| C[C@]12C=CC(=O)N[C@@H]1CC[C@@H]1[C@@H]2CC[C@]2(C)[C@@H](C(=O)Nc3cc(Cl)cc(OCCCNc4cccc5c4C(=O)N(C4CCC(=O)NC4=O)C5=O)c3)CC[C@@H]12 (stereo partly drawn) [C55, N-(3-((3-((4-(2-(3-(2,6-dioxopiperidine))-isoindole-1,3-dione))amino)propyl)oxy)-5-chloro-phenyl)-3-oxo-4-aza-5α-androst-1-ene-17β-carboxamide] | 0.01 to 1 µM | 0.01 to 1 µM | > 1 µM | – | – | – |
| C[C@]12C=CC(=O)N[C@@H]1CC[C@@H]1[C@@H]2CC[C@]2(C)[C@@H](C(=O)Nc3cccc(OCCCCCCNc4cccc5c4C(=O)N(C4CCC(=O)NC4=O)C5=O)c3)CC[C@@H]12 (stereo partly drawn) [C35, N-(3-((6-((4-(2-(3-(2,6-dioxopiperidine))-isoindole-1,3-dione))amino)hexyl)oxy)phenyl)-3-oxo-4-aza-5α-androst-1-ene-17β-carboxamide] | > 1 µM | > 1 µM | > 1 µM | – | – | – |
| C[C@]12C=CC(=O)N[C@@H]1CC[C@@H]1[C@@H]2CC[C@]2(C)[C@@H](C(=O)Nc3ccc(OCCNc4cccc5c4C(=O)N(C4CCC(=O)NC4=O)C5=O)cc3)CC[C@@H]12 (stereo partly drawn) [C15, N-(4-((2-((4-(2-(3-(2,6-dioxopiperidine))-isoindole-1,3-dione))amino)ethyl)oxy)phenyl)-3-oxo-4-aza-5α-androst-1-ene-17β-carboxamide] | 0.01 to 1 µM | > 1 µM | > 1 µM | – | – | – |
